Key:
[1] = target: T1, type 2 human 5α-reductase (HRED2) (Homo sapiens, UniProt P31213); assay: Cell free assay of 5α-reductase, microsomes of rat 1A cells expressing type 2 isoenzyme (HRED2); format: biochemical; design: expressed in transfected cells; host or cells: rat 1A cells infected with pMV7 retrovirus; microsomes;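 note: labeled testosterone and its product dihydrotestosterone measured in microsomal reaction extracts via thin layer chromatography plus radioanalytic scanning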
T1 sequence (P31213 1-254): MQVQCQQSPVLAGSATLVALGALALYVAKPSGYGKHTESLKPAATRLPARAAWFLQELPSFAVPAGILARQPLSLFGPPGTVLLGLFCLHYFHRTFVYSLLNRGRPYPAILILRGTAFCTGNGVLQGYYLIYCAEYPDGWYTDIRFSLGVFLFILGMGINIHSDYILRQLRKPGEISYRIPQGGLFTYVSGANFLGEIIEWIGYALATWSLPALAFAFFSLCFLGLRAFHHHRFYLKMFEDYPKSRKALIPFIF

[2] = target: T2, type 1 human 5α-reductase (HRED1) (Homo sapiens, UniProt P18405); assay: Whole cell assay of 5α-reductase, type 1 isoenzyme; format: cell-based; design: expressed in transfected cells; host or cells: rat 1A cells infected with pMV7 retrovirus;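 note: intact rat 1A cells engineered to express the human type 1 5α-reductase isozyme serve as the enzyme source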
T2 sequence (P18405 1-259): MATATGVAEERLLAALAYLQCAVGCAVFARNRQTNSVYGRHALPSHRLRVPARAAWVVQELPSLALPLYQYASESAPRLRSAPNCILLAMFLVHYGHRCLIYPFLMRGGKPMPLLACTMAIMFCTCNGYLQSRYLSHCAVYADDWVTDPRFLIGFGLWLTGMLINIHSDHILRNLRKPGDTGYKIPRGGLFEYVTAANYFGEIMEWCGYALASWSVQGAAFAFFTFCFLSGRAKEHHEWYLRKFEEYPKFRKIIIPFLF

[3] = target: T1, type 2 human 5α-reductase (HRED2); assay: Whole cell assay of 5α-reductase, type 2 isoenzyme; format: cell-based; design: expressed in transfected cells; host or cells: rat 1A cells infected with pMV7 retrovirus; conditions: for inhibition at 100 µM / HRED2 % Inhibition @ 100 μM: Table 7; for IC50: Table 7, read-out: HCRED2 IC50;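 for all read-outs here: intact rat 1A cells genetically modified to carry human type 2 5α-reductase served as the enzyme source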
[4] = target: T2, type 1 human 5α-reductase (HRED1); assay: Cell free assay of 5α-reductase, microsomes of rat 1A cells expressing type 1 isoenzyme (HRED1); format: biochemical; design: expressed in transfected cells; host or cells: rat 1A cells infected with pMV7 retrovirus; microsomes;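 note: microsomes from rat 1A cells expressing human type 1 5α-reductase, conversion of radiolabeled testosterone to dihydrotestosterone quantified by thin layer chromatography with radioanalytic scanning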
[5] = cell free assay, Table 1 flavanoids, read-out: HRED2 IC50
[6] = whole cell assay, Table 7, read-out: HCRED1 IC50
[7] = cell free assay, Table 1 flavanoids, read-out: HRED1 IC50
[8] = 100 uM, cell free assay, Table 1, read-out: HRED2 % Inhibition @ 100 uM
[9] = 100 uM, cell free assay, Table 1, read-out: HRED1 % Inhibition @ 100 uM
[10] = cell-free assay, read-out: IC50, type 1 isoenzyme

SMILES	IC50 [1, 5]	inhibition at 100 µM ([2]; whole cell assay, Table 7)	IC50 [2, 6]	inhibition at 100 µM [3]	IC50 [3]	IC50 [4, 7]	HRED1 % Inhibition @ 100 μM ([2]; whole cell assay, Table 7)	HRED2 % Inhibition @ 100 μM [3]	further results
O=C(O[C@@H]1Cc2c(O)cc(O)cc2O[C@@H]1c1ccc(O)c(O)c1)c1cc(O)c(O)c(O)c1 [Epicatechin Gallate]	60 µM	0%	> 100 µM	0%	> 100 µM	11 µM	–	–	inhibition at 100 µM ([1]; read-out: HRED2 % Inhibition @ 100 uM): 83%; inhibition at 100 µM ([4]; read-out: HRED1 % Inhibition @ 100 uM): 100%
Oc1cc(O)c2c(c1)O[C@H](c1ccc(O)c(O)c1)[C@H](O)C2 [Epicatechin]	> 100 µM	0%	> 100 µM	1%	> 100 µM	> 100 µM	–	–	inhibition at 100 µM [1, 8]: 4%; inhibition at 100 µM [4, 9]: 14%
Oc1cc(O)c2c(c1)O[C@H](c1cc(O)c(O)c(O)c1)[C@H](O)C2 [Epigallocatechin]	> 100 µM	15%	> 100 µM	1%	> 100 µM	> 100 µM	–	–	inhibition at 100 µM [1, 8]: 3%; inhibition at 100 µM ([1]; 100 μM, cell free assay, Table 5, read-out: HRED2 % Inhibition @ 100 μM): 30%; IC50 ([1]; cell free assay, Table 5 epigallocatechin derivatives, read-out: HRED2 IC50): > 100 µM; inhibition at 100 µM [4, 9]: 15%; inhibition at 100 µM ([4]; 100 μM, cell free assay, Table 5, read-out: HRED1 % Inhibition @ 100 μM): 61%; IC50 ([4]; cell free assay, Table 5 epigallocatechin derivatives, read-out: HRED1 IC50): 62 µM
O=c1c(O)c(-c2ccc(O)c(O)c2)oc2cc(O)ccc12 [Fisetin]	> 100 µM	42%	> 100 µM	27%	> 100 µM	57 µM	–	–	inhibition at 100 µM [1, 8]: 4%; inhibition at 100 µM [4, 9]: 97%; IC50 [4, 10]: < 100 µM
O=C(O)c1cc(O)c(O)c(O)c1 [Gallic Acid]	–	13%	–	0%	> 100 µM	–	–	–	IC50 [2]: > 100 µM
CCCCC/C=C\C/C=C\C/C=C\CCCCC(=O)O[C@H]1CC[C@@]2(C)C(=CC[C@H]3[C@@H]4CC[C@H]([C@H](C)CCCC(C)C)[C@@]4(C)CC[C@@H]32)C1 [Gamma-Linolenic Acid Chol Ester]	–	–	> 100 µM	–	> 100 µM	–	12%	11%	–
CCCCC/C=C\C/C=C\C/C=C\CCCCC(=O)OC [Gamma-Linolenic Acid Me Ester]	–	–	> 100 µM	–	> 100 µM	–	49%	26%	–
CCCCC/C=C\C/C=C\C/C=C\CCCCC(=O)O [Gamma-Linolenic Acid, Gamma-Linolenic Acid C18:3 CIS 6.9,12]	–	91%	22 µM	86%	20 µM	–	–	–	inhibition at 100 µM ([1]; 100 μM, cell free assay, Table 6, read-out: HRED2 % Inhibition @ 100 μM): 89%; IC50 ([1]; cell free assay, Table 6 fatty acids, read-out: HRED2 IC50): 11 µM; IC50 ([1]; cell-free assay, read-out: IC50, type 2 isoenzyme): 3 µM; IC50 ([4]; cell free assay, Table 6 fatty acids, read-out: HRED1 IC50): 5 µM; IC50 [4, 10]: 3 µM; inhibition at 100 µM ([4]; read-out: HRED1 % Inhibition @ 100 μM): 99%
O=c1c(-c2ccc(O)cc2)coc2cc(O)cc(O)c12 [Genistein]	–	–	–	–	–	–	–	–	inhibitory activity against type 2 isoenzyme, in words ([1]; cell-free assay): effective inhibitors; inhibitory activity in the whole cell assay, type 2 isoenzyme, in words [3]: significant inhibitory activity
CCCCCCCCCCCCCC(=O)OC1Cc2c(O)cc(O)cc2OC1c1cc(O)c(O)c(O)c1 (stereo not shown) [HZIV 165]	–	–	28 µM	–	32 µM	–	97%	98%	–
CCCCCCCC(=O)OC1Cc2c(O)cc(O)cc2OC1c1cc(O)c(O)c(O)c1 (stereo not shown) [HZIV 166]	–	–	58 µM	–	72 µM	–	89%	83%	–
CC(C)OC(=O)c1cc(O)c(O)c(O)c1 [Isopropyl Gallate]	–	0%	> 100 µM	0%	> 100 µM	–	–	–	–

Source: patent publication US20030144346A1, “Methods and compositions for regulation of 5-alpha reductase activity” (priority 1997, published 2003)
